Test results from patent US9273115B2, “Method for controlling the biological activity of a protein in a vertebrate cell” (CENTRE NATIONAL DE LA RECHERCHE SCIENTIFIQUE (CNRS), priority 2009, dated 2016).
Numbering of substitutions follows the chain as printed.

Key:
[1] = Liver histology of treated mice; type: in vivo; details: DHB-treated mice
Cre-ERM^Dc [2] = target: T1, Cre-ERM^Dc (Homo sapiens, UniProt P03372, A350M/G442Y/G521S/L346I/L466S/M388Q/Y459N/Y526D); experiment: PCR detection of Cre-mediated floxed DNA excision in Cre-ERM^Dc/RXRα^+/(LNL) F9 cells; type: cell-based; parameters: Cre recombinase (bacteriophage P1); expressed in transfected cells; details: F9 clone; one of 9 active clones
T1 sequence (P03372 311-547 L346I/A350M/M388Q/G442Y/Y459N/L466S/G521S/Y526D limits assumed): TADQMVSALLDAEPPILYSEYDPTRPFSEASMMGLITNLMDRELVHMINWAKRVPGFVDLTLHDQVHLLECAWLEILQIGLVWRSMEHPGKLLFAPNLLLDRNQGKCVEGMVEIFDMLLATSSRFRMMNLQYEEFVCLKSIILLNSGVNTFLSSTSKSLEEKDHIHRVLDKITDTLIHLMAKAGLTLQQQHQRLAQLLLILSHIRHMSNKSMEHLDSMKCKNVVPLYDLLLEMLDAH
Procedure: (§1) F9^+/(LNL) cells (Clifford et al., 1996; Metzger et al., 1995) were coelectroporated with 5 μg pCre-ER expression vectors and 1 μg pPGK-hyg, that had been digested with AseI and PvuII, respectively. Hygromycin-resistant clones were obtained as described (Metzger et al., 1995). To analyse Cre-mediated DNA excision, such clones were plated in 24-well plates at a density of 6×10^3 cells, and grown in the presence of 100 nM all-trans retinoic acid (RA). […] PCR amplification of a segment of the RXRα WT allele (+) and recombined RXRα (Δ) allele from their genomic DNA was carried out using the primers 5′-[…]-3′ (SEQ ID No. 1) and 5′-[…]-3′ (SEQ ID No. 2) (+, ˜300 bp; Δ, ˜350 bp), as described (Feil et al., 1997).

Cre-ERM^Da [3] = target: T2, Cre-ERM^Da (Homo sapiens, UniProt P03372, A350M/G521S/L346I/M388Q/Y526D); experiment: PCR detection of Cre-mediated floxed DNA excision in Cre-ERM^Da/RXRα^+/(LNL) F9 cells; type: cell-based, mouse; parameters: a fusion protein between Cre and the L346I, A350M, M388Q, G521S, Y526D mutant ERα LBD; Cre recombinase (bacteriophage P1); expressed in transfected cells; details: 3 μM DHB, 3 days
T2 sequence (P03372 311-547 L346I/A350M/M388Q/G521S/Y526D limits assumed): T1 sequence (P03372 311-547 L346I/A350M/M388Q/G442Y/Y459N/L466S/G521S/Y526D limits assumed) with Y132G, N149Y, S156L
Procedure: as §1

Cre-ERM^Da [4] = target: T2, Cre-ERM^Da; experiment: Immunocytochemistry of pCre-ERM^Da-transfected Cos-1 cells (nuclear translocation); type: cell-based, African green monkey; parameters: a fusion protein between Cre and the L346I, A350M, M388Q, G521S, Y526D mutant ERα LBD; Cre recombinase (bacteriophage P1); expressed in transfected cells; host or cells: Cos-1 cells (transient, pCre-ERM^Da) for A1; details: 3 μM DHB for 24 hrs
Procedure: (§2) Cos-1 cells grown on Lab-TekII chamber slides (Nalge Nunc International) were transfected with 0.25 μg pCre-ERM expression vectors with Fugene, according to the manufacturer's instruction and treated with vehicle (ethanol) or 3 μM DHB for 24 hrs.

Cre-ERM^Db [5] = target: T3, Cre-ERM^Db (Homo sapiens, UniProt P03372, A350M/G400V/G521S/L346I/M388Q/Y526D); experiment: X-Gal staining of skin sections of K14-Cre-ERM^Db/RosaR26R mice (Cre-mediated recombination in keratinocytes); details: for Cre-mediated recombination in Cre-ERM^Db-expressing keratinocytes of ear skin (distal) / Cre-mediated recombination in Cre-ERM^Db-expressing keratinocytes of tail treated skin: daily tail topical treatment 1 or 0.2 mg for 5 days; for Cre-mediated recombination in keratinocytes expressing Cre-ERM^Db: ear treatment 1 mg/day for 5 days, ear sections at day 12
T3 sequence (P03372 311-547 L346I/A350M/M388Q/G400V/G521S/Y526D limits assumed): T1 sequence (P03372 311-547 L346I/A350M/M388Q/G442Y/Y459N/L466S/G521S/Y526D limits assumed) with G90V, Y132G, N149Y, S156L
Procedure: For topical application, DHB, DHBD, HMB or MB dissolved in ethanol at 100 mg/ml was diluted two times in acetone, and 20 μl (1 mg) was daily applied on one cm^2 ear or tail skin for 5 days. For intraperitoneal and gavage administration, compounds dissolved in ethanol were diluted at 10 mg/ml in sunflower oil, and 100 μl were i.p. injected or orally administered to mice.
β-Galactosidase histochemistry was performed on 10 μm-thick frozen section, stained with X-Gal (5-bromo-4-chloro-3-indolyl β-D-galactoside), as described (Brocard et al., 1997).

[6] = Blood hematology and plasma biochemical profile at D19; type: in vivo, mice; parameters: Bilirubin / Uric acid / Iron: unit not given here; details: for ALAT / ALP / ASAT / Albumin / Bilirubin / Cholesterol / Glucose / HCT, hematocrit / HGB, hemoglobin / Iron / K / MCH, mean corpuscular hemoglobin / MCHC, mean corpuscular hemoglobin concentration / MCV, mean corpuscular volume / Magnesium / Na / Phosphorus / Total protein / Triglycerides / Uric acid: 1 mg daily ip D1 to D5, means +/− SD, n = 3
Cre-ERM^Dc [7] = target: T1, Cre-ERM^Dc; experiment: Immunocytochemistry of Cre-ERM^Dc (translocation from cytoplasm to nucleus); type: cell-based; parameters: Cre recombinase (bacteriophage P1); expressed in transfected cells; host or cells: Cos-1 cells (transient, pCre-ERM^Dc) for A3; details: data not shown
Procedure: as §2

Cre-ERM^Db [8] = target: T3, Cre-ERM^Db; experiment: Immunocytochemistry of pCre-ERM^Db-transfected Cos-1 cells (nuclear translocation); type: cell-based, monkey; parameters: Cre recombinase (bacteriophage P1); expressed in transfected cells; host or cells: Cos-1 cells (transient, pCre-ERM^Db) for A2; details: 3 μM DHB for 24 hrs
Procedure: as §2

Cre-ERM^Db [9] = target: T3, Cre-ERM^Db
Procedure: as §1

[10] = Plasma levels after i.p. administration; type: in vivo, mice
Procedure: For intraperitoneal and gavage administration, compounds dissolved in ethanol were diluted at 10 mg/ml in sunflower oil, and 100 μl were i.p. injected or orally administered to mice.

## O=C(C(=O)c1ccc(O)cc1)c1ccc(O)cc1 [DHB, 4,4′-dihydroxybenzil]
[1]
  histological defects in liver: no histological defects
Cre-ERM^Dc [2]
  Cre-ERM^Dc Cre-mediated recombinase activity: strictly DHB-dependent
Cre-ERM^Da [3]
  Cre-ERM^Da recombinase activity: induced Cre-ERM^Da recombinase activity
Cre-ERM^Da [4]
  Cre-ERM^Da protein nuclear translocation: induced Cre-ERM^Da protein nuclear translocation
Cre-ERM^Db [5]; 1 mg topically to one ear D1 to D5, treated ear sampled at D12
  β-galactosidase expression in epidermal keratinocytes: most, if not all epidermal keratinocytes from the treated ear expressed β-galactosidase
Cre-ERM^Db [5]
  Cre-mediated recombination in Cre-ERM^Db-expressing keratinocytes of ear skin (distal): induced efficient Cre-mediated recombination
  Cre-mediated recombination in Cre-ERM^Db-expressing keratinocytes of tail treated skin: induced efficient Cre-mediated recombination
  Cre-mediated recombination in keratinocytes expressing Cre-ERM^Db: efficiently induced
Cre-ERM^Db [5]; gavage 2 mg/day for 5 days
  β-galactosidase expression in epidermal keratinocytes: induced
Cre-ERM^Db [5]; intraperitoneal injection 1 mg/day for 5 days
  β-galactosidase expression in epidermal keratinocytes: induced
[6]; 1 mg daily ip D1 to D5
  blood hematology and plasma biochemical profiles versus vehicle: did not reveal major difference
[6]; female mice
  ALAT: 27.7 +/− 2.9 U/l
  ALP: 137.0 +/− 14.1 U/l
  ASAT: 143.3 +/− 91.3 U/l
  Albumin: 28.7 ± 0.6 g/L
  Bilirubin: 1.3 +/− 0.4
  Cholesterol: 1.8 ± 0.1 mmol/L
  Glucose: 18.7 ± 3.5 mmol/L
  HCT, hematocrit: 38.9 +/− 2.3%
  HGB, hemoglobin: 13.3 ± 0.8 g/dL
  Iron: 25.6 +/− 3.9
  K: 5.8 ± 0.5 mmol/L
  MCH, mean corpuscular hemoglobin: 16.1 ± 0.2 pg
  MCHC, mean corpuscular hemoglobin concentration: 34.2 ± 0.2 g/dL
  MCV, mean corpuscular volume: 47.2 ± 0.9 fL
  Magnesium: 1.5 ± 0.1 mmol/L
  Na: 152 ± 1.0 mmol/L
  Phosphorus: 3.2 ± 0.1 mmol/L
  Total protein: 48 ± 2.6 g/L
  Triglycerides: 0.6 ± 0.1 mmol/L
  Uric acid: 193.0 +/− 58.4
[6]; male mice
  ALAT: 34.7 +/− 17.5 U/l
  ALP: 114.3 +/− 8.1 U/l
  ASAT: 194 +/− 45.5 U/l
  Albumin: 27.3 ± 3.5 g/L
  Bilirubin: 2.0 +/− 0.3
  Cholesterol: 2.2 ± 0.2 mmol/L
  Glucose: 21.4 ± 7.2 mmol/L
  HCT, hematocrit: 40.0 +/− 3.7%
  HGB, hemoglobin: 14.0 ± 1.3 g/dL
  Iron: 24.9 +/− 1.4
  K: 5.9 mmol/L
  MCH, mean corpuscular hemoglobin: 16.0 ± 0.2 pg
  MCHC, mean corpuscular hemoglobin concentration: 34.9 ± 0.1 g/dL
  MCV, mean corpuscular volume: 45.8 ± 0.5 fL
  Magnesium: 1.2 ± 0.2 mmol/L
  Na: 149.7 ± 6.1 mmol/L
  Phosphorus: 3.6 ± 0.6 mmol/L
  Total protein: 48.3 ± 7.1 g/L
  Triglycerides: 0.8 ± 0.2 mmol/L
  Uric acid: 235.7 +/− 132.5
Cre-ERM^Dc [7]
  translocation of Cre-ERM^Dc from the cytoplasm to the nucleus: induced translocation
Cre-ERM^Db [8]
  Cre-ERM^Db nuclear translocation: induced its nuclear translocation
Cre-ERM^Db [9]; F9 clone, ligand 3 μM
  Cre-mediated floxed DNA excision (Cre-ERM^Db recombinase activity): efficiently induced Cre-mediated floxed DNA excision
[10]; 1 mg i.p.
  in vivo clearance: high
[10]; 1 mg i.p., 22 hours after the two-hour sample
  plasma levels: undetectable
[10]; mouse, plasma, ip, two hours after 1 mg i.p.
  concentration at 2 h: 550 ng/mL

## COc1ccc(C(=O)C(=O)c2ccc(O)cc2)cc1 [HMB, 4-hydroxy-4′-methoxybenzyl]
Cre-ERM^Db [5]
  Cre-mediated recombination in keratinocytes expressing Cre-ERM^Db: Induction of Cre-ERM^Db recombinase activity

## 4-hydroxytamoxifen [OHT]
Cre-ERM^Db [9]
  Cre-ERM^Db recombinase activity: neither E2 nor OHT induced any recombinase activity

## CC(C)(C)C(=O)Oc1ccc(C(=O)C(=O)c2ccc(OC(=O)C(C)(C)C)cc2)cc1 [DHBD, 4,4′-dihydroxylbenzyl dipivalate]
Cre-ERM^Db [5]
  Cre-mediated recombination in Cre-ERM^Db-expressing keratinocytes of ear skin (distal): induced efficient Cre-mediated recombination
  Cre-mediated recombination in Cre-ERM^Db-expressing keratinocytes of tail treated skin: induced efficient Cre-mediated recombination

## 4,4′-methoxybenzyl [MB]
Cre-ERM^Db [5]
  Cre-mediated recombination in keratinocytes expressing Cre-ERM^Db: efficiently induced
